Read-outs that look alike come from different tables or passages of the source.
Key:
MRSA NRS123 = assay: Disk diffusion assay (zone of inhibition); type: cell-based; settings: Staphylococcus aureus, 336 h; for zone of inhibition at 180 µg/disc: 180 μg oritavancin
From the text: (§1) The study was designed to identify conditions that improve oritavancin diffusion in agar and consequently yield a zone diameter ≧15 mm for the CLSI quality control strain MSSA ATCC 25923. Excipients that increased the disk diffusion of oritavancin in agar relative to disks containing only oritavancin were identified and selected for further study. […] A prediffusion step at room temperature was introduced to maximize oritavancin diffusion prior to initiation of bacterial growth. In this step, the antimicrobial disks were placed on agar plates seeded with a bacterial isolate and incubated at room temperature for 3 hours. Plates were then incubated overnight at 37° C. Zone diameters around the disks in which bacterial growth was inhibited were measured with a ruler and reported in millimeters.
(§2) Ethanol-sterilized Whatman paper disks (6 mm diameter) were allowed to dry then impregnated with 20 microliters of oritavancin solution containing total amounts ranging from 90 to 360 micrograms. Disks were allowed to dry at room temperature for various times prior to use.
(§3) Bacterial suspensions were prepared and adjusted to an optical density of 0.1 at 600 nm. Standard cation-adjusted Mueller Hinton agar plates (90 mm diameter) were seeded with bacterial suspensions by initially swabbing the center of plate then moving outward towards the edge. The plate was swabbed a second time, perpendicular to the orientation of the first swab. To assess the impact of prediffusion on diameter of inhibition zones, two disks were immediately placed on one half of the plate and the plate was incubated for 3 hours at room temperature. After 3 hours, two additional disks were placed on the other half of the plate then the plate was incubated overnight at 37° C. Zone diameters were measured with a ruler and reported in millimeters.

MRSA ATCC 33591 = assay: Disk diffusion assay (zone of inhibition); type: cell-based; settings: Staphylococcus aureus, 25 μg (1.25 mg/ml) in 4% P80/Span 80 (1:1), dried overnight, read-out: Inhibition zone diameter
Experimental: (§4) Oritavancin powder was dissolved in freshly-prepared solutions of the indicated excipients at concentrations of 0.625, 1.25, 2.5, 5, and 10 mg/ml (adjusted for potency based on lot 875561L00 purity of 83.1%) by vortexing for a minimum of 5 minutes. Oritavancin solutions in the various excipients, while not visually clear, were free from any apparent particulates as assessed visually. Sterile Oxoid blank disks were impregnated with 20 μl of these oritavancin solutions, resulting in oritavancin disk loads ranging from 12.5 to 200 μg. Unless indicated otherwise, disks were allowed to dry overnight at room temperature prior to use.
(§5) Bacterial suspensions from isolated colonies on overnight cation-adjusted Mueller Hinton agar plates were prepared in sterile saline and adjusted to an optical density of 0.1 at 600 nm Standard cation-adjusted Mueller Hinton agar plates (90 mm diameter) were seeded with bacterial suspensions by initially swabbing the center of plate then moving outward. Swabbing was continued at a right angle and then at an oblique angle to the first and second swabs. Disks were placed upon the seeded plates with sterile forceps. Plates were then incubated overnight at 37° C. and inhibition zone diameters were measured with a ruler and reported in millimeters.

MRSA T998528 = assay: Disk diffusion assay (zone of inhibition); type: cell-based; settings: Staphylococcus aureus, 20 μl of 1.25 mg/ml in 4% P80/Span 80 (1:1), calcium alginate swabs, dried overnight, duplicate, read-out: Inhibition zone diameter
Experimental: as §4, §5

MRSA T998608 = assay: Disk diffusion assay (zone of inhibition); type: cell-based; settings: Staphylococcus aureus, 20 μl of 1.25 mg/ml in 4% P80/Span 80 (1:1), calcium alginate swabs, dried overnight, duplicate, read-out: Inhibition zone diameter
Experimental: as §4, §5

MRSA U784439 = assay: Disk diffusion assay (zone of inhibition); type: cell-based; settings: Staphylococcus aureus, 20 μl of 1.25 mg/ml in 4% P80/Span 80 (1:1), calcium alginate swabs, dried overnight, duplicate, read-out: Inhibition zone diameter
Experimental: as §4, §5

MRSA V288615 = assay: Disk diffusion assay (zone of inhibition); type: cell-based; settings: Staphylococcus aureus, 20 μl of 1.25 mg/ml in 4% P80/Span 80 (1:1), calcium alginate swabs, dried overnight, duplicate, read-out: Inhibition zone diameter
Experimental: as §4, §5

MRSA V406957 = assay: Disk diffusion assay (zone of inhibition); type: cell-based; settings: Staphylococcus aureus, 20 μl of 1.25 mg/ml in 4% P80/Span 80 (1:1), calcium alginate swabs, dried overnight, duplicate, read-out: Inhibition zone diameter
Experimental: as §4, §5

MSSA Q141066 = assay: Disk diffusion assay (zone of inhibition); type: cell-based; settings: Staphylococcus aureus, 20 μl of 1.25 mg/ml in 4% P80/Span 80 (1:1), calcium alginate swabs, dried overnight, duplicate, read-out: Inhibition zone diameter
Experimental: as §4, §5

MSSA T759545 = assay: Disk diffusion assay (zone of inhibition); type: cell-based; settings: Staphylococcus aureus, 20 μl of 1.25 mg/ml in 4% P80/Span 80 (1:1), calcium alginate swabs, dried overnight, duplicate, read-out: Inhibition zone diameter
Experimental: as §4, §5

MSSA U148267 = assay: Disk diffusion assay (zone of inhibition); type: cell-based; settings: Staphylococcus aureus, 20 μl of 1.25 mg/ml in 4% P80/Span 80 (1:1), calcium alginate swabs, dried overnight, duplicate, read-out: Inhibition zone diameter
Experimental: as §4, §5

MSSA V406985 = assay: Disk diffusion assay (zone of inhibition); type: cell-based; settings: Staphylococcus aureus, 20 μl of 1.25 mg/ml in 4% P80/Span 80 (1:1), calcium alginate swabs, dried overnight, duplicate, read-out: Inhibition zone diameter
Experimental: as §4, §5

NRS123 and NRS2 = assay: Disk diffusion assay, difference in zone diameter between two isolates; type: cell-based, Staphylococcus aureus
From the text: as §1, §2, §3

hVISA NRS2 = assay: Disk diffusion assay (zone of inhibition); type: cell-based; settings: Staphylococcus aureus, Oxoid disks, 20 μl of 18 mg/ml oritavancin in 5% P80, stored 30 days at room temperature, prediffusion 6 hours at 4° C., read-out: Inhibition zone diameter

## CN[C@H](CC(C)C)C(=O)N[C@H]1C(=O)N[C@@H](CC(N)=O)C(=O)N[C@H]2C(=O)N[C@H]3C(=O)N[C@H](C(=O)N[C@H](C(=O)O)c4cc(O)cc(O)c4-c4cc3ccc4O)[C@H](O[C@H]3C[C@](C)(N)[C@@H](O)[C@H](C)O3)c3ccc(c(Cl)c3)Oc3cc2cc(c3O[C@@H]2O[C@H](CO)[C@@H](O)[C@H](O)[C@H]2O[C@H]2C[C@](C)(NCc3ccc(-c4ccc(Cl)cc4)cc3)[C@@H](O)[C@H](C)O2)Oc2ccc(cc2Cl)[C@H]1O [oritavancin, N-(4-(4-chlorophenyl)benzyl)A82846B]
MRSA NRS123; 90 μg oritavancin, 10% P80, disks stored 14 days, prediffusion, read-out: Average zone diameter
  zone of inhibition at 90 µg/disc: 15.5 mm
MRSA NRS123; 5% P80, disks stored 14 days, prediffusion, read-out: Average zone diameter
  zone of inhibition at 180 µg/disc: 17.3 mm
MRSA NRS123; 10% P80, disks stored 14 days, prediffusion, read-out: Average zone diameter
  zone of inhibition at 180 µg/disc: 17.3 mm
MRSA NRS123; 360 μg in 5% P80, Experiment 1, disks stored 14 days, no prediffusion, read-out: Zone diameter (mm ± SD)
  zone of inhibition at 360 µg/disc: 16.3 ± 0.4 mm
MRSA NRS123; 360 μg oritavancin, 5% P80, disks stored 14 days, prediffusion, read-out: Average zone diameter
  zone of inhibition at 360 µg/disc: 18.5 mm
MRSA NRS123; 360 μg oritavancin, 10% P80, disks stored 14 days, prediffusion, read-out: Average zone diameter
  zone of inhibition at 360 µg/disc: 17.5 mm
MRSA ATCC 33591
  zone of inhibition at 25 µg/disc: 22 mm
MRSA T998528
  zone of inhibition at 1250 µg/mL: 21 mm
MRSA T998608
  zone of inhibition at 1250 µg/mL: 22 mm
MRSA U784439
  zone of inhibition at 1250 µg/mL: 20 mm
MRSA V288615
  zone of inhibition at 1250 µg/mL: 23 mm
MRSA V406957
  zone of inhibition at 1250 µg/mL: 21 mm
MSSA Q141066
  zone of inhibition at 1250 µg/mL: 20 mm
MSSA T759545
  zone of inhibition at 1250 µg/mL: 22 mm
MSSA U148267
  zone of inhibition at 1250 µg/mL: 21 mm
MSSA V406985
  zone of inhibition at 1250 µg/mL: 24 mm
NRS123 and NRS2; 90 μg oritavancin, 2.5% P80
  Difference in diameter (NRS2 subtracted from NRS123): 1.8 mm
NRS123 and NRS2; 90 μg oritavancin, 5% P80
  Difference in diameter (NRS2 subtracted from NRS123): 1 mm
NRS123 and NRS2; 90 μg oritavancin, 10% P80
  Difference in diameter (NRS2 subtracted from NRS123): −0.3 mm
NRS123 and NRS2; 180 μg oritavancin, 2.5% P80
  Difference in diameter (NRS2 subtracted from NRS123): 1.7 mm
NRS123 and NRS2; 180 μg oritavancin, 5% P80
  Difference in diameter (NRS2 subtracted from NRS123): 1.3 mm
NRS123 and NRS2; 180 μg oritavancin, 10% P80
  Difference in diameter (NRS2 subtracted from NRS123): 1.3 mm
NRS123 and NRS2; 360 μg oritavancin, 2.5% P80
  Difference in diameter (NRS2 subtracted from NRS123): 1.8 mm
NRS123 and NRS2; 360 μg oritavancin, 5% P80
  Difference in diameter (NRS2 subtracted from NRS123): 0.5 mm
NRS123 and NRS2; 360 μg oritavancin, 10% P80
  Difference in diameter (NRS2 subtracted from NRS123): 1 mm
hVISA NRS2
  zone of inhibition at 18000 µg/mL: 16.5 mm
